target: T1, hTRPV3 (Homo sapiens, UniProt Q8NET8); assay: Whole cell patch clamp inhibition rate test on HEK-293 cells instantaneously expressing TRPV3; assay type: cell-based; details: HEK293; hTRPV3, single concentration 0.3 μM
T1 construct: expressed in transfected cells; host or cells: HEK-293
T1 sequence (Q8NET8 1-790): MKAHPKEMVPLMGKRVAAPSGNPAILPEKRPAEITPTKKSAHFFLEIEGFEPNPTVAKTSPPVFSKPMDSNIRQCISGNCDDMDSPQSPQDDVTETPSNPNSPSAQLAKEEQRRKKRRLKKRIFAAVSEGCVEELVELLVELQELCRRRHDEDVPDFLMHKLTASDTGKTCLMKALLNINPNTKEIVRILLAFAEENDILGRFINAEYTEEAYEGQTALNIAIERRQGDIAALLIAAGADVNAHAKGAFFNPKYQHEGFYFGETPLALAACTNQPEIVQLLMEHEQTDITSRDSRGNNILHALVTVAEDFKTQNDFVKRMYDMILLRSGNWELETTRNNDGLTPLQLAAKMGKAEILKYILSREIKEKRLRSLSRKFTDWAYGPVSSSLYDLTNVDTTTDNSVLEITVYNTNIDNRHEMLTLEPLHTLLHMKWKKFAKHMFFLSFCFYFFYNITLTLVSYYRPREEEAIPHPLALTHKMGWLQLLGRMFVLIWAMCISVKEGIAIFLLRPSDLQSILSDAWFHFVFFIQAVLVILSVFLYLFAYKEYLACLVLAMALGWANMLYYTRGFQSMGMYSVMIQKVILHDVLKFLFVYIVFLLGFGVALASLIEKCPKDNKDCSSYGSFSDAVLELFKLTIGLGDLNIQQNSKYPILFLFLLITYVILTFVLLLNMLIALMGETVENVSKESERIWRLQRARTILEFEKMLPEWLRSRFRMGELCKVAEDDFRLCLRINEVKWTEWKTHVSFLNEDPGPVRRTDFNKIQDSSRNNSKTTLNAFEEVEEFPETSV
Description: In this study, HEK-293 cells instantaneously expressing TRPV3 were used for experimental detection.
The operation steps are as follows:
The cells were cultured in DMEM medium containing 10% fetal bovine serum at a temperature of 37° C. and a carbon dioxide concentration of 5%.
Day 1: Cells were inoculated into a 6-well plate with 5×10^5 cells per well.
Day 2: Transfection was performed using Lipofectamine 3000 transfection reagent, with a plasmid to transfection reagent ratio of 1 μg: 2 μL. The total amount of plasmid used per well was 3 μg. Specifically, two sterile centrifuge tubes were taken and 100 μL Opti-MEM was added to each tube. 6 μL Lipofectamine 3000 was added to one tube and mixed well; and 3 μg plasmid was added to another tube and mixed well, and then 6 μL P3000 was added and mixed well; Subsequently, the diluted plasmid DNA was added to diluted Lipofectamine 3000 and incubated at room temperature for 10-15 min. DNA liposome complex was dropped into the cells, shaked gently and mixed well, and then cultured in an incubator. The liquid was changed after 4 to 6 h.
Day 3: The cells were digested and seeded into 24 well plates with pre-placed cover slides, with 8×10^3 cells per well.
Day 4: Patch clamp testing was performed.
The voltage stimulation protocol for recording TRPV3 current using whole cell patch clamp is as follows: after forming a whole cell seal, a cell membrane voltage clamp was set at −80 mV. Firstly, a membrane potential was recorded at 0 mV, and then a voltage was command to start from −100 mV, to depolarize in the form of Ramp to 100 mV within 100 ms, and finally restore to 0 mV. Data collection was repeated every 5 seconds to observe the inhibitory effect of pharmaceutical on peak current. Experimental data was collected by EPC 10 amplifier (HEKA) and stored in PatchMaster (HEKA) software.
A microelectrode puller was used to pull the capillary glass tube into a recording electrode. The electrode filled with intracellular fluid was inserted into a microelectrode holder, and a microelectrode manipulator was operated under an inverted microscope to immerse the electrode in extracellular fluid and an electrode resistance (Rpip) was recorded. The electrode was brought into contact with the cell surface and a negative pressure suction was applied to form a high resistance seal (GΩ). At this point, a fast capacitance compensation was performed, and negative pressure was continued to apply in order to break the cell membrane, so that a whole cell recording mode was formed. Then, a slow capacitance compensation was performed and experimental parameters such as film capacitance (Cm) and series resistance (Rs) were recorded. No leakage compensation was provided.
When the TRPV3 current recorded by the whole cell had stabilized, administration was started. Each pharmaceutical concentration acted for 5 minutes (or until the current stabilized) before detecting the next concentration. A plurality of concentrations was tested for each test compound. A cover glass covered with cells was placed in a recording bath under an inverted microscope. A blank control extracellular solution and a working fluid for the compound to be tested sequentially flowed through the recording bath from low concentration to high concentration using gravity perfusion to act on the cells. Liquid exchange was performed using a peristaltic pump during recording. The current detected by each cell in the extracellular fluid without the compound served as its own control group. Each concentration was independently tested twice using at least two cells. All electrophysiological tests were conducted at room temperature.

Compound	inhibition at 0.3 µM [%]
CC(C)c1ccccc1-c1ccc2c(c1)[C@@H](O)C[C@]21CCN(C(=O)c2ccc(F)cn2)C1 [Example 27]	< 25
CC(C)c1ccccc1-c1ccc2c(c1)[C@@H](O)C[C@@]21CCN(C(=O)c2ccc(F)cn2)C1 [Example 28]	< 25
O=C(c1csc(Cl)n1)N1CC[C@@]2(C[C@@H](O)c3cc(-c4ccccc4C4CC4)ccc32)C1 [Example 29, (2-chlorothiazol-4-yl)((1S,3R)-5-(2-cyclopropylphenyl)-3-hydroxy-2,3-dihydrospiro[indene-1,3′-pyrrolidine]-1′-yl)ketone]	70 to 100
O=C(c1csc(Cl)n1)N1CC[C@]2(C[C@@H](O)c3cc(-c4ccccc4C4CC4)ccc32)C1 [Example 30, (2-chlorothiazol-4-yl)((1R,3R)-5-(2-cyclopropylphenyl)-3-hydroxy-2,3-dihydrospiro[indene-1,3′-pyrrolidine]-1′-yl)ketone]	< 25
O=C(c1csc(Cl)n1)N1CC[C@@]2(C[C@H](O)c3cc(-c4ccccc4C4CC4)ccc32)C1 [Example 31, (2-chlorothiazol-4-yl)((1S,3S)-5-(2-cyclopropylphenyl)-3-hydroxy-2,3-dihydrospiro[indene-1,3′-pyrrolidine]-1′-yl)ketone]	< 25
O=C(c1csc(Cl)n1)N1CC[C@]2(C[C@H](O)c3cc(-c4ccccc4C4CC4)ccc32)C1 [Example 32, (2-chlorothiazol-4-yl)((1R,3S)-5-(2-cyclopropylphenyl)-3-hydroxy-2,3-dihydrospiro[indene-1,3′-pyrrolidine]-1′-yl)ketone]	< 25
CC(C)c1ccccc1-c1ccc2c(c1)[C@H](O)C[C@@]21CCN(C(=O)c2csc(Cl)n2)C1 [Example 33, (2-chlorothiazol-4-yl)((1S,3R)-3-hydroxy-5-(2-isopropylphenyl)-2,3-dihydrospiro[indene-1,3′-pyrrolidine]-1′-yl)ketone]	70 to 100
CC(C)c1ccccc1-c1ccc2c(c1)[C@H](O)C[C@]21CCN(C(=O)c2csc(Cl)n2)C1 [Example 34, (2-chlorothiazol-4-yl)((1R,3R)-3-hydroxy-5-(2-isopropylphenyl)-2,3-dihydrospiro[indene-1,3′-pyrrolidine]-1′-yl)ketone]	< 25
CC(C)c1ccccc1-c1ccc2c(c1)[C@@H](O)C[C@@]21CCN(C(=O)c2csc(Cl)n2)C1 [Example 35, (2-chlorothiazol-4-yl)((1S,3S)-3-hydroxy-5-(2-isopropylphenyl)-2,3-dihydrospiro[indene-1,3′-pyrrolidine]-1′-yl)ketone]	< 25
CC(C)c1ccccc1-c1ccc2c(c1)[C@@H](O)C[C@]21CCN(C(=O)c2csc(Cl)n2)C1 [Example 36, (2-chlorothiazol-4-yl)((1R,3S)-3-hydroxy-5-(2-isopropylphenyl)-2,3-dihydrospiro[indene-1,3′-pyrrolidine]-1′-yl)ketone]	< 25
O=C(c1cccc(C2CC2)n1)N1CC[C@@]2(C[C@@H](O)c3cc(-c4ccccc4C4CC4)ccc32)C1 [Example 37, ((1S,3R)-5-(2-cyclopropylphenyl)-3-hydroxy-2,3-dihydrospiro[indene-1,3′-pyrrolidine]-1′-yl)(6-cyclopropylpyridin-2-yl) ketone]	70 to 100
O=C(c1cccc(C2CC2)n1)N1CC[C@]2(C[C@@H](O)c3cc(-c4ccccc4C4CC4)ccc32)C1 [Example 38, ((1R,3R)-5-(2-cyclopropylphenyl)-3-hydroxy-2,3-dihydrospiro[indene-1,3′-pyrrolidine]-1′-yl)(6-cyclopropylpyridin-2-yl) ketone]	< 25
O=C(c1cccc(C2CC2)n1)N1CC[C@@]2(C[C@H](O)c3cc(-c4ccccc4C4CC4)ccc32)C1 [Example 39, ((1S,3S)-5-(2-cyclopropylphenyl)-3-hydroxy-2,3-dihydrospiro[indene-1,3′-pyrrolidine]-1′-yl)(6-cyclopropylpyridin-2-yl) ketone]	< 25
O=C(c1cccc(C2CC2)n1)N1CC[C@]2(C[C@H](O)c3cc(-c4ccccc4C4CC4)ccc32)C1 [Example 40, ((1R,3S)-5-(2-cyclopropylphenyl)-3-hydroxy-2,3-dihydrospiro[indene-1,3′-pyrrolidine]-1′-yl)(6-cyclopropylpyridin-2-yl) ketone]	< 25
CC(C)c1ccccc1-c1ccc2c(c1)[C@H](O)C[C@@]21CCN(C(=O)c2cccc(C3CC3)n2)C1 [Example 41, (6-cyclopropylpyridin-2-yl)((1S,3R)-3-hydroxy-5-(2-isopropylphenyl)-2,3-dihydrospiro[indene-1,3′-pyrrolidine]-1′-yl)ketone]	70 to 100
CC(C)c1ccccc1-c1ccc2c(c1)[C@H](O)C[C@]21CCN(C(=O)c2cccc(C3CC3)n2)C1 [Example 42, (6-cyclopropylpyridin-2-yl)((1R,3R)-3-hydroxy-5-(2-isopropylphenyl)-2,3-dihydrospiro[indene-1,3′-pyrrolidine]-1′-yl)ketone]	< 25
CC(C)c1ccccc1-c1ccc2c(c1)[C@@H](O)C[C@@]21CCN(C(=O)c2cccc(C3CC3)n2)C1 [Example 43, (6-cyclopropylpyridin-2-yl)((1S,3S)-3-hydroxy-5-(2-isopropylphenyl)-2,3-dihydrospiro[indene-1,3′-pyrrolidine]-1′-yl)ketone]	< 25
CC(C)c1ccccc1-c1ccc2c(c1)[C@@H](O)C[C@]21CCN(C(=O)c2cccc(C3CC3)n2)C1 [Example 44, (6-cyclopropylpyridin-2-yl)((1R,3S)-3-hydroxy-5-(2-isopropylphenyl)-2,3-dihydrospiro[indene-1,3′-pyrrolidine]-1′-yl)ketone]	< 25
O=C(c1ccc(F)cn1)N1CCC2(C[C@@H](O)c3cc(-c4ccccc4C4CC4)ccc32)C1 (stereo partly drawn) [Example 45, ((3R)-5-(2-cyclopropylphenyl)-3-hydroxy-2,3-dihydrospiro[indene-1,3′-pyrrolidine]-1′-yl)(5-fluoropyridin-2-yl) ketone]	70 to 100
O=C(c1ccc(F)cn1)N1CCC2(C[C@H](O)c3cc(-c4ccccc4C4CC4)ccc32)C1 (stereo partly drawn) [Example 46, ((3S)-5-(2-cyclopropylphenyl)-3-hydroxy-2,3-dihydrospiro[indene-1,3′-pyrrolidine]-1′-yl)(5-fluoropyridin-2-yl) ketone]	< 25
COCc1cccc(C(=O)N2CCC3(CC(O)c4cc(-c5ccccc5C5CC5)ccc43)C2)n1 (stereo not shown) [Example 47, (5-(2-cyclopropylphenyl)-3-hydroxy-2,3-dihydrospiro[indene-1,3′-pyrrolidine]-1′-yl)(6-(methoxymethyl)pyridin-2-yl) ketone]	< 25
CNc1cncc(C(=O)N2CCC3(CC(O)c4cc(-c5ccccc5C5CC5)ccc43)C2)n1 (stereo not shown) [Example 48, (5-(2-cyclopropylphenyl)-3-hydroxy-2,3-dihydrospiro[indene-1,3′-pyrrolidine]-1′-yl)(6-(methylamino)pyrazin-2-yl) ketone]	70 to 100

Source: patent US20260174786A1, “A NITROGEN-CONTAINING SPIROCYCLIC COMPOUND, PHARMACEUTICAL COMPOSITION AND USE THEREOF” (Prime Gene Therapeutics Co., Ltd., priority 2022, published 2026)
